Experimental data taken from PubChem BioAssay AID651554 (The Scripps Research Institute Molecular Screening Center, 2012).
The source made the active and inactive calls.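 The calls were made as follows: active = either panel giving IC50 at or below 10 µM; inactive = both panels giving IC50 over 10 µM.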

biological target: Melanocortin receptor 4 (Homo sapiens) (UniProt P32245); experiment: MC4R antagonists of Melanotan II cAMP, late-stage follow-up, cell-based, FRET, biased ligands (AID 651554); conditions: U2OS MC4R, Melanotan II cAMP TR-FRET antagonist; run 1
Sequence (P32245 whole entry, looked up): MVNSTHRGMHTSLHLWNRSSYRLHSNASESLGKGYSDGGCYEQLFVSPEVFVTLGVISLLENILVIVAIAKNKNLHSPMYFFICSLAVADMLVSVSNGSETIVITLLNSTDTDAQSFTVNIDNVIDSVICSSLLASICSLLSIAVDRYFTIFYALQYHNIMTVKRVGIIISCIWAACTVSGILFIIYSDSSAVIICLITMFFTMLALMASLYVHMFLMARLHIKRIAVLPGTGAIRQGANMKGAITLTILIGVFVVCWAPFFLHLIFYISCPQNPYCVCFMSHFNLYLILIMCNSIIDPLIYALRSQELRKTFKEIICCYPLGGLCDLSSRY

SMILES | IC50
COc1ccc(N(C(C)=O)C(C(=O)NC2CCCC2)c2cccs2)cc1OC (stereo not given) | > 50 µM (inactive)
CC(=O)c1ccc(Nc2nc3ccc(C(=O)N(CCC(C)C)CCC(C)C)cc3n2CCCN2CCCCC2)cc1 | 0.0174 µM
CCC1CCCCN1S(=O)(=O)c1ccc(NC(=O)c2ccccc2)cc1 (stereo not given) | > 50 µM (inactive)
CC1CCCCN1S(=O)(=O)c1ccc(NC(=O)c2nc(S(C)(=O)=O)ncc2Cl)cc1 (stereo not given) | inactive
CCC1CCCCN1S(=O)(=O)c1ccc(NC(=O)c2ccnc(SC)n2)cc1 (stereo not given) | > 50 µM (inactive)
CNC(=O)c1cc(Oc2ccc(NCC(=O)Nc3ccc(Cl)c(C(F)(F)F)c3)cc2)ccn1 | > 50 µM (inactive)
CNC(=O)c1cc(Oc2ccc(NC(=O)Nc3ccc(Cl)c(C(F)(F)F)c3)cc2)ccn1 | inactive
COc1ccccc1C1(CCNC(C)c2cccs2)CCOC(C(C)C)C1 (stereo not given) | 8.15 µM
CCC1CCCCN1S(=O)(=O)c1ccc(NC(=O)c2cccc(S(C)(=O)=O)c2)cc1 (stereo not given) | > 50 µM (inactive)
C#CC(=O)N(c1ccc(OC)c(OC)c1)C(C(=O)NC1CCCC1)c1cccs1 (stereo not given) | > 50 µM (inactive)
Cc1ccccc1CN1Cc2cnnn2-c2ccccc2C1C#N (stereo not given) | > 50 µM (inactive)
CNC(=O)c1cc(Oc2ccc(NC(=O)CNc3ccc(Cl)c(C(F)(F)F)c3)cc2)ccn1 | > 50 µM (inactive)

same assay, conditions: U2OS MC4R, Melanotan II cAMP TR-FRET antagonist; run 2

SMILES | IC50
Cc1ccccc1CN1Cc2ccccc2-n2nncc2C1 | > 50 µM (inactive)
COc1ccc(N(C(=O)c2ccco2)C(C(=O)NC2CCCC2)c2cccs2)cc1OC (stereo not given) | > 50 µM (inactive)
CC(=O)N(c1ccccc1)C(C(=O)NC1CCCC1)c1cccs1 (stereo not given) | > 50 µM (inactive)
Cc1ccc(CN2Cc3ccccc3-n3nncc3C2)c(C)c1 | > 50 µM (inactive)
N#CC1c2ccccc2-n2nncc2CN1C(=O)c1ccccc1 (stereo not given) | > 50 µM (inactive)
CC(=O)c1ccc(Nc2nc3ccc(C(=O)N(CCC(C)C)CCC(C)C)cc3n2CCCN2CCCCC2)cc1 | 0.0365 µM
CCC1CCCCN1S(=O)(=O)c1ccc(NC(=O)c2ccccc2)cc1 (stereo not given) | > 50 µM (inactive)
COc1ccc(N(C(=O)Cc2cccs2)C(C(=O)NC2CCCC2)c2cccs2)cc1OC (stereo not given) | > 50 µM (inactive)
CCC1CCCCN1S(=O)(=O)c1ccc(NC(=O)c2ccnc(S(C)(=O)=O)n2)cc1 (stereo not given) | inactive
CCC1CCCCN1S(=O)(=O)c1ccc(NC(=O)c2ccnc(S(C)=O)n2)cc1 (stereo not given) | > 50 µM (inactive)
CCC1CCCCN1S(=O)(=O)c1ccc(NC(=O)c2nc(S(C)(=O)=O)ncc2Br)cc1 (stereo not given) | > 50 µM (inactive)
O=C(NC1CCCC1)C(Nc1ccccc1)c1cccs1 (stereo not given) | > 50 µM (inactive)
Cc1ccc(CN2Cc3cnnn3-c3ccccc3C2C#N)c(C)c1 (stereo not given) | > 50 µM (inactive)
